Where two headings read alike, the source gives them in different places.
Columns and labels:
[1] = system: B. subtilis 168; assay: Antimicrobial susceptibility assay (broth microdilution MIC); assay type: cell-based; conditions: Bacillus subtilis; B. subtilis 168; Mueller Hinton broth, 18 h at 37°C; growth inhibited by ≥90%; read-out: MIC
Description: (§1) The bacterial strains S. aureus ATCC 29213, S. aureus ATCC 29247, S. aureus ATCC BAA-41, E. faecium ATCC 49624, E. faecium ATCC 700221, E. faecalis ATCC 29212, S. epidermidis ATCC 12228, E. coli ATCC 25922, and K. pneumoniae ATCC BAA-1144 used in the antimicrobial susceptibility assays were purchased from American Type Culture Collection (ATCC, USA). B. subtilis strain 168 was already available in our in-house collection. E. coli JM109 WM647 was kindly provided by Dr. W. Margolin (University of Texas-Houston Medical School). FM 4–64 was purchased from Invitrogen (Eugene, Oregon). All other chemicals and reagents were purchased from Sigma-Aldrich. Stock solutions were prepared in DMSO. The final percentage of DMSO in the assays was 1% (v/v) for all experiments.
(§2) Antimicrobial susceptibility tests were conducted in 96-well microplates using the broth microdilution procedure described in the Clinical and Laboratory Standards Institute (CLSI) guidelines. Cation-adjusted Mueller Hinton broth for S. aureus strain ATCC 29213, methicillin-resistant S. aureus strain ATCC BAA-41 and ampicillin-resistant S. aureus strain ATCC 29247, or brain heart infusion broth for antibiotic-susceptible E. faecium strain ATCC 49624 and vancomycin-resistant E. faecium strain ATCC 700221, or Mueller Hinton broth for antibiotic-susceptible strains B. subtilis strain 168, E. faecalis strain ATCC 29212 and E. coli strain ATCC 25922 were used in the assays. After incubation for 18 h at 37°C, the absorbance at 600 nm (A600) was recorded using a microplate reader (Bio-Rad laboratory Ltd., UK) and the percentage of bacterial cell inhibition with respect to vehicles (1% DMSO) was calculated. The MIC was defined as the lowest compound concentration at which the growth of bacteria was inhibited by ≥90%. Three independent assays were performed for each test.

[2] = system: E. coli ATCC 25922; assay: as above; assay type: cell-based; conditions: Escherichia coli, ATCC25922; E. coli ATCC 25922; Mueller Hinton broth, 18 h at 37°C; growth inhibited by ≥90%; read-out: MIC
Description: as §1, §2

[3] = system: S. aureus ATCC 29247; assay: as above; assay type: cell-based; conditions: Staphylococcus aureus, ATCC29247; S. aureus ATCC 29247 (ampicillin-resistant); 18 h at 37°C; growth inhibited by ≥90%; read-out: MIC
Description: as §1, §2

[4] = system: S. aureus ATCC BAA-41; assay: as above; assay type: cell-based; conditions: Staphylococcus aureus, ATCCBAA41; S. aureus ATCC BAA-41 (methicillin-resistant); 18 h at 37°C; growth inhibited by ≥90%; read-out: MIC
Description: as §1, §2

[5] = molecular target: T1, S. aureus FtsZ (Staphylococcus aureus, UniProt P0A031); assay: GTPase activity assay; assay type: biochemical; conditions: for GTPase activity of S. aureus FtsZ: 0.44 in its absence
T1 construct: made in house; host or cells: E. coli BL21(DE3)
T1 sequence (P0A031 1-390): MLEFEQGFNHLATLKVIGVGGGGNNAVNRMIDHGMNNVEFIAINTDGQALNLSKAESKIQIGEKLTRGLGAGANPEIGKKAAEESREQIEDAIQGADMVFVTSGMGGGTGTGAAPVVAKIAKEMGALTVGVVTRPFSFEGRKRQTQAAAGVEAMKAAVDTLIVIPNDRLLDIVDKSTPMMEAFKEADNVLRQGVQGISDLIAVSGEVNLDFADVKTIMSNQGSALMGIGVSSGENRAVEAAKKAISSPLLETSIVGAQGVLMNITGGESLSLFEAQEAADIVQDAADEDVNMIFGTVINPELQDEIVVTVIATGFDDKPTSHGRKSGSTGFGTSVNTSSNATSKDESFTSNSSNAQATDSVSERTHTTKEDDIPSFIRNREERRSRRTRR
Experimental: E. coli BL21(DE3) cells were transformed with the pRSET-A-S vector carrying S. aureus FtsZ with a 6-histidine tag attached at its N-terminus under the control of a T7 promoter. […] When the OD600 reached 0.8, protein expression was induced with 0.4 mM isopropyl-β-D-thiogalactopyranoside (IPTG) for 4 h. Cells were harvested by centrifugation at 9000 rpm for 20 min at 4°C. The cell pellet was resuspended in 20 mL of solubilization buffer (50 mM Tris-HCl, 150 mM NaCl, 1 mM PMSF and 1 mM EDTA, pH 7.4) and then lysed with 1 mg/mL of lysozyme. The mixture was incubated for 1 h on ice. The cells were disrupted by sonication and the crude lysate obtained was centrifuged at 13,000 rpm for 1 h at 4°C. The supernatant containing 6-histidine tagged S. aureus FtsZ was collected and loaded onto a nickel charged HiTrap chelating column pre-equilibrated with starting buffer (20 mM sodium phosphate buffer, 0.5 M NaCl, pH 7.4). The column was then washed with 8 column volumes of the starting buffer to remove the unbound proteins, and the histidine-tagged enzyme was eluted by a linear gradient of 0−0.2 M imidazole. Fractions containing S. aureus FtsZ were pooled, buffer-exchanged with 20 mM NH4HCO3 (pH 8.0) at 4°C, lyophilized, and stored at −20°C. A stock solution of S. aureus FtsZ for the subsequent bioassay was prepared from the lyophilized powder.
The GTPase activity of recombinant S. aureus FtsZ was measured in 96-well microplates using a CytoPhos phosphate assay Biochem Kit (Cytoskeleton, USA) according to an optimized protocol and the manufacturer’s instructions. S. aureus FtsZ (3.5 µM) was preincubated with vehicle (1% DMSO) or different concentrations of each test compound in 50 mM 4-morpholinepropanesulfonic acid buffer (MOPS, pH 6.5) for 10 min at 25°C. Then 5 mM of MgCl2 and 200 mM of KCl were added. Reactions were started with the addition of 500 µM GTP and incubated at 37°C. After 30 min, the reactions were quenched by adding 100 µL of Cytophos reagent for 10 min. Inorganic phosphate was quantified by measuring the absorbance at 650 nm with a microplate reader (Bio-Rad laboratory Ltd., UK). The relative IC50 values were determined by nonlinear regression using a sigmoidal concentration-response curve in the Origin software v6. For the rate of GTPase activity of S. aureus FtsZ, different concentrations of fresh prepared FtsZ (3, 6, 9, 12, 15 µM) was preincubated with vehicle (1% DMSO) or 25 µM, 50 µM compound 2, following the same condition. The data were plotted via Origin software v6. Three independent assays were performed for all the tests.

[6] = system: Gram-negative strains E. coli and K. pneumoniae (expressing AmpC β-lactamase); assay: Antimicrobial susceptibility assay, summary over Gram-negative strains; assay type: cell-based; conditions: Escherichia coli, read-out: MIC values
Description: as §1, §2

[7] = FtsZ 3.5 µM, 500 µM GTP, 30 min at 37°C, MOPS pH 6.5, read-out: IC50±SEM, S. aureus FtsZ GTPase activity (relative IC50)
[8] = Gram-negative strains E. coli and K. pneumoniae

| SMILES | MIC [1] [µg/mL] | MIC [2] [µg/mL] | MIC [3] [µg/mL] | MIC [4] [µg/mL] | IC50 [5] [µM] | MIC [6] [µg/mL] | IC50 [5, 7] [µM] | MIC [6, 8] [µg/mL] | GTPase activity of S. aureus FtsZ ([5]; in the presence of 25 µM compound) [GTP/FtsZ/min] | GTPase activity of S. aureus FtsZ ([5]; in the presence of 50 µM compound) [GTP/FtsZ/min] |
| --- | --- | --- | --- | --- | --- | --- | --- | --- | --- | --- |
| COc1ccc2cc3[n+](cc2c1OC)CCc1cc2c(cc1-3)OCO2 [Berberine, Berberine chloride] | 128 | > 500 | 128 | 196 | 272 ± 46.6 | > 500 | – | – | – | – |
| COc1ccc2cc3[n+](cc2c1OCCCOc1ccccc1)CCc1cc2c(cc1-3)OCO2 [Compound 1] | 8 | 96 | 4 | 4 | – | – | 56.8 ± 10.4 | 32 to 128 | – | – |
| COc1ccc2cc3[n+](cc2c1OCCCOc1ccc(Cl)cc1)CCc1cc2c(cc1-3)OCO2 [Compound 2] | 4 | 32 | 2 | 2 | – | – | 37.8 ± 3.8 | 32 to 128 | 0.24 | 0.1 |
| COc1ccc(OCCCOc2c(OC)ccc3cc4[n+](cc23)CCc2cc3c(cc2-4)OCO3)cc1 [Compound 3] | 8 | 128 | 8 | 8 | – | – | 47.3 ± 4.6 | 32 to 128 | – | – |
| COc1ccc2cc3[n+](cc2c1OCCCOc1ccccc1C)CCc1cc2c(cc1-3)OCO2 [Compound 4] | 8 | 96 | 4 | 4 | – | – | 63.7 ± 4.8 | 32 to 128 | – | – |
| COc1ccc2cc3[n+](cc2c1OCCCOc1ccc([N+](=O)[O-])cc1)CCc1cc2c(cc1-3)OCO2 [Compound 5] | 8 | 32 | 2 | 2 | – | – | 43.4 ± 5.2 | 32 to 128 | – | – |
| COc1ccc2cc3[n+](cc2c1OCCCCOc1ccccc1)CCc1cc2c(cc1-3)OCO2 [Compound 6] | 8 | 96 | 4 | 4 | – | – | 63.5 ± 4.7 | 32 to 128 | – | – |
